Source: patent US11771660B2, “Flavonoid polyphenol drug self-emulsifying composition, preparation method therefor, pharmaceutical composition thereof and application thereof” (priority 2019, dated 2023)

Columns and labels:
[1] = Saturated solubility in oil phase and blank self-emulsifying concentrate; assay type: physicochemical; settings: room temperature 24 hours
Protocol: They were placed at room temperature for 24 hours to observe whether the drug was precipitated. If no drug was precipitated, an appropriate amount of each phospholipid complex was added and operated in the same manner until the drug was precipitated. The supernatant was taken and centrifuged at 12000 r/min for 20 min. Then, the supernatant was taken and the saturated solubility of each flavonoid polyphenol drug-phospholipid complex in the oil phase and the blank self-emulsifying concentrate was determined by the preceding HPLC method.

[2] = Plasma pharmacokinetics after gavage in rats; assay type: in vivo, Sprague-Dawley rats; settings: gavage 40 mg/kg
Protocol: Test group B: The self-emulsifying composition of baicalein encapsulating baicalein ingredient in Comparative Example 1 (hereinafter labeled OBA-SMEDDS) was administered.
Test group C: Baicalein ingredient (hereinafter labeled BA) was administered.
Sprague-Dawley rats (male, 200 g) were fed for one week before tests, forbidden to eat rather than drink the night before the tests, and supplied with water freely during the tests.
15 rats were randomly divided into three groups (test group A, test group B and test group C, separately), with 5 rats in each group. Gavage (2-3 mL) was provided at a dose of 40 mg/kg. 0.3 mL of blood was taken from the retro-orbital venous plexus at 5, 15, 30, 45, 60 and 75 min and 3, 6, 8, 10, 12 and 24 h after administration, placed in a pre-heparinized 1.5 mL conical centrifuge tube, and centrifuged at 4000 r/min for 15 min. The upper plasma was aspirated, stored in the refrigerator at −80° C., and thawed at normal temperature before determination.
Treatment of plasma samples: 100 μL of plasma was taken, placed in a 1.5 mL conical centrifuge tube, added with 10 μL of ascorbic acid (200 mg/mL), 20 μL of an internal standard solution (500 ng/ml) and 300 μL of methanol, vortexed for 60 s, and centrifuged at 12000 r/min for 10 min. Then, the supernatant was aspirated, placed in a centrifuge tube, concentrated through centrifugation to remove the solvent (40° C.), added with 200 μL of methanol:water (80:20) to be dissolved, vortexed for 30 s, and centrifuged at 12000 r/min for 5 min. 20 μL of the supernatant was injected and the plasma concentration was determined under the following chromatography conditions (liquid chromatography-mass spectrometry).
Chromatography column: Agilent ZORBAX SB C18 column (250 mm×4.6 mm, […]);
Column temperature: 25° C.;
Mobile phase (gradient elution, see Table 11): acetonitrile-0.1% formic acid as an eluent.
Electrospray ion source (ESI), positive ion mode, multiple reaction monitoring (MRM);
Other parameters: an atomizer pressure of 40 psi, a drying gas flowrate of 9 L/min, a drying gas temperature of 350° C., a capillary voltage of 4000V and a split ratio of 1:2.
MRM detection ion pair for quantification: baicalin [M+H]+ 447.0→271.1;

[3] = male, Sprague-Dawley, rat, po, baicalein in plasma

SMILES: O=c1cc(-c2ccccc2)oc2cc(O)c(O)c(O)c12 [BA, baicalein]
- saturated solubility in the blank self-emulsifying concentrate (drug load of the self-emulsifying composition) ([1]; ethyl oleate:labraosol:transcutol HP 2:5:3): 20 mg/g
- saturated solubility in oil ([1]; oil phase ethyl oleate): 0.3 mg/g
- AUC (0-t) ([2]; baicalein in plasma): 15864.8 µg·min/L
- AUC (0-∞) ([2]; baicalein in plasma): 15880.4 µg·min/L
- Cmax [2, 3]: 99.1 ± 42 ng/mL
- Tmax [2, 3]: 1.25 h
- MRT last ([2]; male, Sprague-Dawley, rat, po, baicalein in plasma, read-out: MRT (0-t) (converted)): 4 h
- MRT inf ([2]; male, Sprague-Dawley, rat, po, baicalein in plasma, read-out: MRT (0-∞) (converted)): 4.01 h
- bioavailability ([2]; male, Sprague-Dawley, rat, po, relative to baicalein ingredient, based on baicalein in plasma): 100%
